Measurements published in PubChem BioAssay (NCI).
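How tested: cells in 96-well plates exposed to compound for 48 hours at five concentrations. GI50 = concentration required for 50% inhibition of growth. At the TGI there is no net growth.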

Tests used:
Experiment in all cases: inhibition of tumour cell growth, NCI panel, 48 h
NCI-H460 lung = tested on: NCI-H460 lung
SK-MEL-2 melanoma = tested on: SK-MEL-2 melanoma
CCRF-CEM leukemia = tested on: CCRF-CEM leukemia
PC-3 prostate = tested on: PC-3 prostate
DU-145 prostate = tested on: DU-145 prostate
OVCAR-8 ovarian = tested on: OVCAR-8 ovarian
786-0 renal = tested on: 786-0 renal
MCF7 breast = tested on: MCF7 breast
COLO 205 colon = tested on: COLO 205 colon
SW-620 colon = tested on: SW-620 colon
OVCAR-5 ovarian = tested on: OVCAR-5 ovarian
HL-60(TB) leukemia = tested on: HL-60(TB) leukemia
NCI-H23 lung = tested on: NCI-H23 lung
TK-10 renal = tested on: TK-10 renal
MDA-MB-231 breast = tested on: MDA-MB-231 breast
SF-295 CNS = tested on: SF-295 CNS
HT29 colon = tested on: HT29 colon
IGROV1 ovarian = tested on: IGROV1 ovarian
SK-MEL-28 melanoma = tested on: SK-MEL-28 melanoma
EKVX NSCLC = tested on: EKVX NSCLC
HCT-116 colon = tested on: HCT-116 colon
SF-268 CNS = tested on: SF-268 CNS
MALME-3M melanoma = tested on: MALME-3M melanoma
ACHN renal = tested on: ACHN renal
U251 CNS = tested on: U251 CNS
OVCAR-4 ovarian = tested on: OVCAR-4 ovarian
SR leukemia = tested on: SR leukemia
HCT-15 colon = tested on: HCT-15 colon
SF-539 CNS = tested on: SF-539 CNS
SNB-19 CNS = tested on: SNB-19 CNS
A498 renal = tested on: A498 renal
SK-MEL-5 melanoma = tested on: SK-MEL-5 melanoma
HOP-62 NSCLC = tested on: HOP-62 NSCLC
NCI-H226 lung = tested on: NCI-H226 lung
MDA-MB-435 = tested on: MDA-MB-435
A549 NSCLC = tested on: A549 NSCLC
RPMI-8226 leukemia = tested on: RPMI-8226 leukemia
HS 578T breast = tested on: HS 578T breast
SNB-75 CNS = tested on: SNB-75 CNS
M14 melanoma = tested on: M14 melanoma
NCI/ADR-RES ovarian = tested on: NCI/ADR-RES ovarian
LOX IMVI melanoma = tested on: LOX IMVI melanoma
CAKI-1 renal = tested on: CAKI-1 renal
SN12C renal = tested on: SN12C renal
UACC-62 melanoma = tested on: UACC-62 melanoma
UO-31 renal = tested on: UO-31 renal
MOLT-4 leukemia = tested on: MOLT-4 leukemia
NCI-H522 lung = tested on: NCI-H522 lung
K-562 leukemia = tested on: K-562 leukemia
UACC-257 melanoma = tested on: UACC-257 melanoma
T-47D breast = tested on: T-47D breast
OVCAR-3 ovarian = tested on: OVCAR-3 ovarian
KM12 colon = tested on: KM12 colon
SK-OV-3 ovarian = tested on: SK-OV-3 ovarian
HCC-2998 colon = tested on: HCC-2998 colon
HOP-92 NSCLC = tested on: HOP-92 NSCLC

O=[n+]1c2ccccc2n([O-])c2ccccc21
TGI (NCI-H460 lung): > 100 µM
TGI (SK-MEL-2 melanoma): > 100 µM
TGI (CCRF-CEM leukemia): > 100 µM
TGI (PC-3 prostate): > 100 µM
TGI (DU-145 prostate): > 100 µM
TGI (OVCAR-8 ovarian): > 100 µM
TGI (786-0 renal): > 100 µM
TGI (MCF7 breast): > 100 µM
TGI (COLO 205 colon): > 100 µM
TGI (SW-620 colon): > 100 µM
TGI (OVCAR-5 ovarian): > 100 µM
TGI (HL-60(TB) leukemia): 72.4 µM
TGI (NCI-H23 lung): > 100 µM
TGI (TK-10 renal): > 100 µM
TGI (MDA-MB-231 breast): > 100 µM
TGI (SF-295 CNS): > 100 µM
TGI (HT29 colon): > 100 µM
TGI (IGROV1 ovarian): > 100 µM
TGI (SK-MEL-28 melanoma): > 100 µM
TGI (EKVX NSCLC): > 100 µM
TGI (HCT-116 colon): > 100 µM
TGI (SF-268 CNS): > 100 µM
TGI (MALME-3M melanoma): > 100 µM
TGI (ACHN renal): > 100 µM
TGI (U251 CNS): > 100 µM
TGI (OVCAR-4 ovarian): > 100 µM
TGI (SR leukemia): > 100 µM
TGI (HCT-15 colon): > 100 µM
TGI (SF-539 CNS): > 100 µM
TGI (SNB-19 CNS): > 100 µM
TGI (A498 renal): > 100 µM
TGI (SK-MEL-5 melanoma): > 100 µM
TGI (HOP-62 NSCLC): > 100 µM
TGI (NCI-H226 lung): > 100 µM
TGI (MDA-MB-435): > 100 µM
TGI (A549 NSCLC): > 100 µM
TGI (RPMI-8226 leukemia): > 100 µM
TGI (HS 578T breast): > 100 µM
TGI (SNB-75 CNS): > 100 µM
TGI (M14 melanoma): > 100 µM
TGI (NCI/ADR-RES ovarian): > 100 µM
TGI (LOX IMVI melanoma): > 100 µM
TGI (CAKI-1 renal): > 100 µM
TGI (SN12C renal): > 100 µM
TGI (UACC-62 melanoma): > 100 µM
TGI (UO-31 renal): > 100 µM
TGI (MOLT-4 leukemia): 81.2 µM
TGI (NCI-H522 lung): > 100 µM
TGI (K-562 leukemia): > 100 µM
TGI (UACC-257 melanoma): > 100 µM
TGI (T-47D breast): > 100 µM

COC(=O)c1cc2c(cc1Cl)SC(N(N(C)C)S(=O)(=O)c1ccc(Br)s1)=NS2(=O)=O
GI50 (NCI-H460 lung): 22.4 µM
TGI (NCI-H460 lung): 43.9 µM
GI50 (SK-MEL-2 melanoma): 3.2 µM
TGI (SK-MEL-2 melanoma): 9.66 µM
GI50 (CCRF-CEM leukemia): 23.1 µM
TGI (CCRF-CEM leukemia): 72.5 µM
GI50 (OVCAR-3 ovarian): 21.6 µM
TGI (OVCAR-3 ovarian): 56.9 µM
GI50 (PC-3 prostate): 16 µM
TGI (PC-3 prostate): 35.1 µM
GI50 (DU-145 prostate): 26.1 µM
TGI (DU-145 prostate): 86 µM
GI50 (786-0 renal): 35.1 µM
TGI (786-0 renal): > 100 µM
GI50 (MCF7 breast): 22.4 µM
TGI (MCF7 breast): 44.7 µM
GI50 (COLO 205 colon): 21.2 µM
TGI (COLO 205 colon): 50.9 µM
GI50 (SW-620 colon): 18.6 µM
TGI (SW-620 colon): 36.3 µM
GI50 (OVCAR-5 ovarian): 29.8 µM
TGI (OVCAR-5 ovarian): 81.1 µM
GI50 (HL-60(TB) leukemia): 19.6 µM
TGI (HL-60(TB) leukemia): 44.5 µM
GI50 (NCI-H23 lung): 28.5 µM
TGI (NCI-H23 lung): 70.9 µM
GI50 (TK-10 renal): 29.7 µM
TGI (TK-10 renal): 82.1 µM
GI50 (MDA-MB-231 breast): 20.3 µM
TGI (MDA-MB-231 breast): 43.9 µM
GI50 (SF-295 CNS): 33.2 µM
TGI (SF-295 CNS): 97.3 µM
GI50 (HT29 colon): 21.3 µM
TGI (HT29 colon): 56.9 µM
GI50 (IGROV1 ovarian): 29 µM
TGI (IGROV1 ovarian): 94.3 µM
GI50 (KM12 colon): 24.8 µM
TGI (KM12 colon): 74.4 µM
GI50 (SK-MEL-28 melanoma): 17.8 µM
TGI (SK-MEL-28 melanoma): 35.3 µM
GI50 (EKVX NSCLC): 25.3 µM
TGI (EKVX NSCLC): 61 µM
GI50 (SK-OV-3 ovarian): 28 µM
TGI (SK-OV-3 ovarian): 66.7 µM
GI50 (HCT-116 colon): 26.6 µM
TGI (HCT-116 colon): 73.6 µM
GI50 (SF-268 CNS): 27.4 µM
TGI (SF-268 CNS): 67.3 µM
GI50 (MALME-3M melanoma): 24.9 µM
TGI (MALME-3M melanoma): 74 µM
GI50 (ACHN renal): 24.2 µM
TGI (ACHN renal): 54.1 µM
GI50 (U251 CNS): 30.2 µM
TGI (U251 CNS): 88.2 µM
GI50 (OVCAR-4 ovarian): 19.2 µM
TGI (OVCAR-4 ovarian): 53.7 µM
GI50 (SR leukemia): 13.3 µM
TGI (SR leukemia): 35.4 µM
GI50 (HCT-15 colon): 18 µM
TGI (HCT-15 colon): 33.6 µM
GI50 (SF-539 CNS): 21.2 µM
TGI (SF-539 CNS): 51.5 µM
GI50 (SNB-19 CNS): 21.2 µM
TGI (SNB-19 CNS): 58.4 µM
GI50 (A498 renal): 28.8 µM
TGI (A498 renal): 80.1 µM
GI50 (SK-MEL-5 melanoma): 15.8 µM
TGI (SK-MEL-5 melanoma): 29.4 µM
GI50 (HOP-62 NSCLC): 31.1 µM
TGI (HOP-62 NSCLC): > 100 µM
GI50 (NCI-H226 lung): 52.1 µM
TGI (NCI-H226 lung): > 100 µM
GI50 (MDA-MB-435): 23.1 µM
TGI (MDA-MB-435): 49.7 µM
GI50 (A549 NSCLC): 32 µM
TGI (A549 NSCLC): > 100 µM
GI50 (HCC-2998 colon): 19.7 µM
TGI (HCC-2998 colon): 40.6 µM
GI50 (RPMI-8226 leukemia): 25.4 µM
TGI (RPMI-8226 leukemia): 74.1 µM
GI50 (HS 578T breast): 26.2 µM
TGI (HS 578T breast): 63.5 µM
GI50 (SNB-75 CNS): 30.5 µM
TGI (SNB-75 CNS): 88.7 µM
GI50 (M14 melanoma): 23.2 µM
TGI (M14 melanoma): 49.2 µM
GI50 (NCI/ADR-RES ovarian): 23.7 µM
TGI (NCI/ADR-RES ovarian): 59.9 µM
GI50 (LOX IMVI melanoma): 17.5 µM
TGI (LOX IMVI melanoma): 31.8 µM
GI50 (CAKI-1 renal): 28.3 µM
TGI (CAKI-1 renal): 60.7 µM
GI50 (SN12C renal): 30.5 µM
TGI (SN12C renal): > 100 µM
GI50 (UACC-62 melanoma): 21.4 µM
TGI (UACC-62 melanoma): 50.6 µM
GI50 (UO-31 renal): 27.3 µM
TGI (UO-31 renal): 81.3 µM
GI50 (MOLT-4 leukemia): 15.5 µM
TGI (MOLT-4 leukemia): 36.1 µM
GI50 (NCI-H522 lung): 17.9 µM
TGI (NCI-H522 lung): 42.1 µM
GI50 (K-562 leukemia): 16.1 µM
TGI (K-562 leukemia): 33.6 µM
GI50 (T-47D breast): 12.8 µM
TGI (T-47D breast): 43.1 µM
GI50 (HOP-92 NSCLC): 18.5 µM
TGI (HOP-92 NSCLC): 36.7 µM
